Consider 32 molecules from ChEMBL document CHEMBL1127973, “A comparative molecular field analysis derived model of the binding of taxol analogues to microtubules” (Bioorg Med Chem Lett, 1994).

The target of test [1] is T1, Tubulin (Homo sapiens) (UniProt P68371+Q9H4B7+P0DPH7+P68366+Q13509+Q71U36+P04350+Q3ZCM7+P07437+P68363+Q9BQE3+Q6PEY2+Q13885+Q9BVA1+Q9BUF5). The test can be described thus: Binding affinity to microtubules, activity expressed as log 1/ID50 of compound/ID50 of paclitaxel. Type of test: protein-complex assay.
In test [2] the target is T1, Tubulin (Homo sapiens). The experiment in a line: Binding affinity to microtubules, activity expressed as ID50 of compound/ID50 of paclitaxel. Type of test: protein-complex assay.

Regarding `C/C=C/C(=O)O[C@H]1C[C@@]2(O)[C@@H](OC(=O)c3ccccc3)[C@@H]3[C@]4(OC(C)=O)CO[C@@H]4C[C@H](O)[C@@]3(C)C(=O)[C@H](OC(C)=O)C(=C1C)C2(C)C`, the Log 1/ratio in test [1] was -2. The ID50 ratio in test [2] was determined as 100. For `CC(=O)O[C@@]12CO[C@@H]1C[C@H](O)[C@@]1(C)C(=O)[C@H](O)C3=C(C)[C@@H](OC(=O)[C@@H](NC(=O)OC(C)(C)C)[C@H](O)c4ccccc4)C[C@@](O)([C@@H](OC(=O)c4ccccc4)[C@H]21)C3(C)C` the same measures were -2.2 and 160. For `CC(=O)O[C@@]12CO[C@@H]1C[C@H](OC(=O)[C@H](O)[C@@H](O)[C@H](O)CO)[C@@]1(C)C(=O)[C@H](O)C3=C(C)[C@@H](OC(=O)[C@H](O)[C@@H](NC(=O)c4ccccc4)c4ccccc4)C[C@@](O)([C@@H](OC(=O)c4ccccc4)[C@H]21)C3(C)C` the same measures were 0.222 and 0.6. For `CC(=O)O[C@H]1C(=O)[C@@]2(C)[C@H]([C@H](OC(=O)c3ccccc3)[C@]3(O)C[C@H](OC(=O)[C@H](O)[C@@H](NC(=O)c4ccccc4)c4ccc(Cl)cc4)C(C)=C1C3(C)C)[C@]1(OC(C)=O)CO[C@@H]1C[C@@H]2O` the same measures were -0.279 and 1.9. Turning to `CC(=O)O[C@H]1C(=O)[C@@]2(C)[C@H]([C@H](OC(=O)c3ccccc3)[C@]3(O)C[C@H](OC(=O)[C@H](O)[C@@H](NC(=O)CC(C)(C)C)c4ccccc4)C(C)=C1C3(C)C)[C@]1(OC(C)=O)CO[C@@H]1C[C@@H]2O`, the Log 1/ratio in test [1] worked out at 0.155. For the same molecule, the ID50 ratio in test [2] was 0.7.

On to `CC(=O)O[C@@]12CO[C@@H]1C[C@H](O)[C@@]1(C)C(=O)[C@H](O)C3=C(C)[C@@H](OC(=O)/C=C/c4ccccc4)C[C@@](O)([C@@H](OC(=O)c4ccccc4)[C@H]21)C3(C)C`, for which the Log 1/ratio in test [1] was -1.37. Further, in test [2], the ID50 ratio stood at 23.

For `CC(=O)O[C@H]1C(=O)[C@@]2(C)[C@H]([C@H](OC(=O)c3ccccc3)[C@]3(O)C[C@H](OC(=O)[C@H](OC(C)=O)[C@@H](NC(=O)c4ccccc4)c4ccccc4)C(C)=C1C3(C)C)[C@]1(OC(C)=O)CO[C@@H]1C[C@@H]2O`, in test [1], the Log 1/ratio is -1.48. Moreover, in test [2], the ID50 ratio is 30. Turning to `CC(=O)O[C@H]1C(=O)[C@@]2(C)[C@H]([C@H](OC(=O)c3ccccc3)[C@]3(O)C[C@H](OC(=O)[C@H](NC(=O)c4ccccc4)[C@@H](O)c4ccccc4)C(C)=C1C3(C)C)[C@]1(OC(C)=O)CO[C@@H]1C[C@@H]2O`, in test [1], the Log 1/ratio was -1. Further, in test [2], the ID50 ratio turned out to be 10. For `CC(=O)O[C@@]12CO[C@@H]1C[C@H](O)[C@@]1(C)C(=O)[C@H](O)C3=C(C)[C@@H](OC(=O)[C@@H](O)[C@H](NC(=O)OC(C)(C)C)c4ccccc4)C[C@@](O)([C@@H](OC(=O)c4ccccc4)[C@H]21)C3(C)C` the same measures were -1.48 and 30. For `CC(=O)O[C@H]1C(=O)[C@@]2(C)[C@H]([C@H](OC(=O)c3ccccc3)[C@]3(O)C[C@H](OC(=O)[C@H](O)[C@@H](NC(=O)c4ccccc4)c4ccccc4)C(C)=C1C3(C)C)[C@]1(OC(C)=O)CO[C@@H]1C[C@@H]2O` (stereo in doubt; 14) the same measures were 0.0969 and 0.8. Regarding `CC(=O)O[C@H]1C(=O)[C@@]2(C)[C@H]([C@H](OC(=O)c3ccccc3)[C@]3(O)C[C@H](OC(=O)[C@H](NC(=O)OC(C)(C)C)[C@@H](O)c4ccccc4)C(C)=C1C3(C)C)[C@]1(OC(C)=O)CO[C@@H]1C[C@@H]2O`, in test [1], the Log 1/ratio was -1. Further, the ID50 ratio in test [2] was 10. Turning to `CCCCOC(=O)N[C@@H](c1ccccc1)[C@@H](O)C(=O)O[C@H]1C[C@@]2(O)[C@@H](OC(=O)c3ccccc3)[C@@H]3[C@]4(OC(C)=O)CO[C@@H]4C[C@H](O)[C@@]3(C)C(=O)[C@H](OC(C)=O)C(=C1C)C2(C)C`, the Log 1/ratio in test [1] was 0.0969. The ID50 ratio in test [2] was determined as 0.8. On to `CC(=O)O[C@H]1C(=O)[C@]2(C)[C@@H](OC(=O)[C@H](N)CCC(=O)O)C[C@H]3OC[C@@]3(OC(C)=O)[C@H]2[C@H](OC(=O)c2ccccc2)[C@]2(O)C[C@H](OC(=O)[C@H](O)[C@@H](NC(=O)c3ccccc3)c3ccccc3)C(C)=C1C2(C)C`, for which the Log 1/ratio in test [1] came out at 0. Moreover, the ID50 ratio in test [2] was found to be 1. Take `CC(=O)O[C@H]1C(=O)[C@@]2(C)[C@H]([C@H](OC(=O)c3ccccc3)[C@]3(O)C[C@H](OC(=O)[C@@H](NC(=O)OC(C)(C)C)[C@H](O)c4ccccc4)C(C)=C1C3(C)C)[C@]1(OC(C)=O)CO[C@@H]1C[C@@H]2O`: in test [1], the Log 1/ratio is -2.03. Further, the ID50 ratio in test [2] is 108. For `CC(=O)O[C@H]1C(=O)[C@]2(C)[C@@H](OC(=O)[C@H](O)[C@@H](O)[C@H](O)CO)C[C@H]3OC[C@@]3(OC(C)=O)[C@H]2[C@H](OC(=O)c2ccccc2)[C@]2(O)C[C@H](OC(=O)[C@H](O)[C@@H](NC(=O)c3ccccc3)c3ccccc3)C(C)=C1C2(C)C` the same measures were -0.398 and 0.4.

Turning to `CC(=O)O[C@@]12CO[C@@H]1C[C@H](O)[C@@]1(C)C(=O)[C@H](O)C3=C(C)[C@@H](OC(=O)[C@@H](NC(=O)c4ccccc4)[C@H](O)c4ccccc4)C[C@@](O)([C@@H](OC(=O)c4ccccc4)[C@H]21)C3(C)C`, the Log 1/ratio in test [1] was -2.23. For the same molecule, the ID50 ratio in test [2] is 170.

On to `CC(=O)O[C@@]12CO[C@@H]1C[C@H](O)[C@@]1(C)C(=O)[C@H](O)C3=C(C)[C@@H](OC(=O)[C@H](NC(=O)c4ccccc4)[C@@H](O)c4ccccc4)C[C@@](O)([C@@H](OC(=O)c4ccccc4)[C@H]21)C3(C)C`, for which, in test [1], the Log 1/ratio is -1. Further, the ID50 ratio in test [2] amounted to 10. For `CC(=O)O[C@@]12CO[C@@H]1C[C@H](O)[C@@]1(C)C(=O)[C@H](O)C3=C(C)[C@@H](OC(=O)[C@H](O)[C@H](NC(=O)c4ccccc4)c4ccccc4)C[C@@](O)([C@@H](OC(=O)c4ccccc4)[C@H]21)C3(C)C` the same measures were -0.114 and 1.3.

Turning to `CC(=O)O[C@@H](C(=O)O[C@H]1C[C@@]2(O)[C@@H](OC(=O)c3ccccc3)[C@@H]3[C@]4(OC(C)=O)CO[C@@H]4C[C@H](O)[C@@]3(C)C(=O)[C@H](O)C(=C1C)C2(C)C)[C@@H](NC(=O)OC(C)(C)C)c1ccccc1`, the Log 1/ratio in test [1] is -1.48. Also, the ID50 ratio in test [2] was 10.

On to `CC(=O)O[C@H]1C(=O)[C@@]2(C)[C@H]([C@H](OC(=O)c3ccccc3)[C@]3(O)C[C@H](OC(=O)[C@H](O)[C@@H](NC(=O)c4ccccc4)c4ccc(F)cc4)C(C)=C1C3(C)C)[C@]1(OC(C)=O)CO[C@@H]1C[C@@H]2O`, for which the Log 1/ratio in test [1] is -0.0414. In addition, the ID50 ratio in test [2] worked out at 1.1.

Take `CC(=O)O[C@H]1C(=O)[C@]2(C)[C@@H](OC(=O)c3ccccc3)C[C@H]3OC[C@@]3(OC(C)=O)[C@H]2[C@H](OC(=O)c2ccccc2)[C@]2(O)C[C@H](OC(=O)[C@H](O)[C@@H](NC(=O)c3ccccc3)c3ccccc3)C(C)=C1C2(C)C`: in test [1], the Log 1/ratio is -0.23. Besides, the ID50 ratio in test [2] is 1.7. In the case of `CC(=O)O[C@@]12CO[C@@H]1C[C@H](O)[C@@]1(C)C(=O)[C@H](O)C3=C(C)[C@@H](OC(=O)[C@@H](O)[C@@H](NC(=O)c4ccccc4)c4ccccc4)C[C@@](O)([C@@H](OC(=O)c4ccccc4)[C@H]21)C3(C)C`, the Log 1/ratio in test [1] is -0.114. The ID50 ratio in test [2] came out at 1.3. `CC(=O)O[C@H]1C(=O)[C@@]2(C)[C@H]([C@H](OC(=O)c3ccccc3)[C@]3(O)C[C@H](OC(=O)[C@H](O)[C@@H](NC(=O)OCc4ccccc4)c4ccccc4)C(C)=C1C3(C)C)[C@]1(OC(C)=O)CO[C@@H]1C[C@@H]2O`: the ID50 ratio in test [2] was found to be 3.3. On the same count and under the same terms, the result for `CC(=O)O[C@H]1C(=O)[C@@]2(C)[C@H]([C@H](OC(=O)c3ccccc3)[C@]3(O)C[C@H](OC(=O)[C@H](O)CNC(=O)c4ccccc4)C(C)=C1C3(C)C)[C@]1(OC(C)=O)CO[C@@H]1C[C@@H]2O` reads 5.6; that for `CC(=O)O[C@H]1C(=O)[C@@]2(C)[C@H]([C@H](OC(=O)c3ccccc3)[C@]3(O)C[C@H](OC(=O)[C@H](O)Cc4ccccc4)C(C)=C1C3(C)C)[C@]1(OC(C)=O)CO[C@@H]1C[C@@H]2O`, 13.2. Same read-out and setting: next, `CC(=O)O[C@H]1C(=O)[C@@]2(C)[C@H]([C@H](OC(=O)c3ccccc3)[C@]3(O)C[C@H](OC(=O)[C@H](O)[C@@H](NC(=O)c4ccoc4)c4ccccc4)C(C)=C1C3(C)C)[C@]1(OC(C)=O)CO[C@@H]1C[C@@H]2O`: 0.4; `CC(=O)O[C@H]1C(=O)[C@@]2(C)[C@H]([C@H](OC(=O)c3ccccc3)[C@]3(O)C[C@H](OC(=O)[C@H](O)[C@@H](NC(=O)/C(C)=N/NC(=O)OC(C)(C)C)c4ccccc4)C(C)=C1C3(C)C)[C@]1(OC(C)=O)CO[C@@H]1C[C@@H]2O`: 14.1; `CCC(=O)O[C@H]1C[C@@]2(O)[C@@H](OC(=O)c3ccccc3)[C@@H]3[C@]4(OC(C)=O)CO[C@@H]4C[C@H](O)[C@@]3(C)C(=O)[C@H](OC(C)=O)C(=C1C)C2(C)C`: 52. Turning to `C/C=C(\C)C(=O)N[C@@H](c1ccccc1)[C@@H](O)C(=O)O[C@H]1C[C@@]2(O)[C@@H](OC(=O)c3ccccc3)[C@@H]3[C@]4(OC(C)=O)CO[C@@H]4C[C@H](O)[C@@]3(C)C(=O)[C@H](OC(C)=O)C(=C1C)C2(C)C`, the ID50 ratio in test [2] came out at 1.5. With `CC(=O)O[C@H]1C(=O)[C@]2(C)[C@@H](OC(=O)c3ccc(C(=[N+]=[N-])C(F)(F)F)cc3)C[C@H]3OC[C@@]3(OC(C)=O)[C@H]2[C@H](OC(=O)c2ccccc2)[C@]2(O)C[C@H](OC(=O)[C@H](O)[C@@H](NC(=O)c3ccccc3)c3ccccc3)C(C)=C1C2(C)C`, the ID50 ratio in test [2] turned out to be 3.4. Still for that read-out and setting: the result for `C/C=C(\C)C(=O)N[C@@H](c1ccccc1)[C@@H](O)C(=O)O[C@H]1C[C@@]2(O)[C@@H](OC(=O)c3ccccc3)[C@@H]3[C@]4(OC(C)=O)CO[C@@H]4C[C@H](O)[C@@]3(C)C(=O)[C@H](O)C(=C1C)C2(C)C` reads 5; that for `CC(=O)O[C@H]1C(=O)[C@@]2(C)[C@H]([C@H](OC(=O)c3ccccc3)[C@]3(O)C[C@H](OC(=O)[C@H](O)[C@@H](NC(=O)c4ccco4)c4ccccc4)C(C)=C1C3(C)C)[C@]1(OC(C)=O)CO[C@@H]1C[C@@H]2O`, 0.8.
